# Laboratory results published in ChEMBL document CHEMBL1201862, “PubChem BioAssay data set” (2004).
#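 These data come from cells grown in 96-well plates and exposed to compound for 48 hours at five concentrations. At the GI50, growth is halved.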 Activity calls are given as the source filed them. Cut-off read from the data, not from the text of the source: active = GI50 up to about 1.1 µM and inactive = higher.
# Legend:
# Assay in all cases: NCI anticancer screen, dose series, 48 h
# [1] = system: 786-0
# [2] = system: CAKI-1
# [3] = system: COLO 205
# [4] = system: HOP-62
# [5] = system: HT-29
# [6] = system: LOX IMVI
# [7] = system: M19-MEL
# [8] = system: OVCAR-8
# [9] = system: SF-268
# [10] = system: SF-539
# [11] = system: SK-MEL-5
# [12] = system: SN12C
# [13] = system: UACC-62
# [14] = system: UO-31
# [15] = system: A498
# [16] = system: HL-60
# [17] = system: MCF7
# [18] = system: MDA-MB-435
# [19] = system: MDA-N
# [20] = system: UACC-257
SMILES,GI50 [1],GI50 [2],GI50 [3],GI50 [4],GI50 [5],GI50 [6],GI50 [7],GI50 [8],GI50 [9],GI50 [10],GI50 [11],GI50 [12],GI50 [13],GI50 [14],GI50 [15],GI50 [16],GI50 [17],GI50 [18],GI50 [19],GI50 [20]
NC(CCSC(F)F)C(=O)O (configuration not stated),> 100 µM (inactive),> 100 µM (inactive),92.3 µM (inactive),> 100 µM (inactive),> 100 µM (inactive),> 100 µM (inactive),> 100 µM (inactive),> 100 µM (inactive),> 100 µM (inactive),> 100 µM (inactive),> 100 µM (inactive),> 100 µM (inactive),> 100 µM (inactive),> 100 µM (inactive),,,,,,
Cc1cc2c(=Cc3ccc(N(C)C)cc3)c3ccccc3n2[n+]1C,0.607 µM (active),3.3 µM (inactive),0.164 µM (active),0.656 µM (active),0.675 µM (active),0.458 µM (active),,0.313 µM (active),0.537 µM (active),0.641 µM (active),0.414 µM (active),0.304 µM (active),1.4 µM (inactive),3.01 µM (inactive),1.87 µM (inactive),1.39 µM (inactive),0.396 µM (active),0.424 µM (active),0.383 µM (active),0.207 µM (active)
CNC(=O)CC1NC(=O)c2csc(n2)-c2ccc(-c3nc(C4=NC(C(=O)N5CCCC5C(N)=O)CO4)cs3)nc2-c2csc(n2)-c2csc(n2)C(C(C)C)NC(=O)CNC(=O)c2csc(n2)C(C(C)C)NC(=O)c2nc1sc2C (configuration not stated),0.0214 µM (active),0.436 µM (active),0.00126 µM (active),0.00826 µM (active),> 25 µM (inactive),0.00191 µM (active),,0.00485 µM (active),0.0625 µM (active),0.00113 µM (active),0.00289 µM (active),0.00398 µM (active),0.00438 µM (active),2.18 µM (inactive),0.0923 µM (active),> 25 µM (inactive),> 25 µM (inactive),> 25 µM (inactive),> 25 µM (inactive),0.02 µM (active)
Cc1cn([C@@H]2C[C@@H]2CO)c(=O)[nH]c1=O,> 100 µM (inactive),> 100 µM (inactive),> 100 µM (inactive),> 100 µM (inactive),> 100 µM (inactive),> 100 µM (inactive),,> 100 µM (inactive),> 100 µM (inactive),> 100 µM (inactive),> 100 µM (inactive),> 100 µM (inactive),> 100 µM (inactive),> 100 µM (inactive),> 100 µM (inactive),> 100 µM (inactive),> 100 µM (inactive),> 100 µM (inactive),> 100 µM (inactive),> 100 µM (inactive)
NC(=S)Nc1nc(=S)[nH]c2[nH]ccc12,> 100 µM (inactive),> 100 µM (inactive),82.4 µM (inactive),> 100 µM (inactive),99.5 µM (inactive),27.7 µM (inactive),,49.3 µM (inactive),20.2 µM (inactive),> 100 µM (inactive),15.3 µM (inactive),> 100 µM (inactive),91 µM (inactive),66.7 µM (inactive),> 100 µM (inactive),19.1 µM (inactive),91.2 µM (inactive),30.9 µM (inactive),98.2 µM (inactive),> 100 µM (inactive)
COc1cc2c(SCCN(C)C)nc3ccccc3c2c2ccccc12,1.93 µM (inactive),1.88 µM (inactive),1.68 µM (inactive),1.79 µM (inactive),2.64 µM (inactive),1.69 µM (inactive),,2.14 µM (inactive),2.04 µM (inactive),1.74 µM (inactive),1.83 µM (inactive),2.52 µM (inactive),1.63 µM (inactive),2.26 µM (inactive),10.7 µM (inactive),0.193 µM (active),1.66 µM (inactive),1.96 µM (inactive),2.19 µM (inactive),1.77 µM (inactive)
CC(=O)NC1C(OCc2ccccc2)OC(CO)C(O)C1OCC(=O)NC(C)C(=O)NC(CCC(=O)NCCCCCC(=O)Nc1ccc2c(c1)CN1C(=O)c3ccccc3C1=N2)C(N)=O (configuration not stated),82.8 µM (inactive),> 100 µM (inactive),> 100 µM (inactive),41 µM (inactive),> 100 µM (inactive),53.1 µM (inactive),,49.5 µM (inactive),63.8 µM (inactive),> 100 µM (inactive),75 µM (inactive),69.8 µM (inactive),57.3 µM (inactive),> 100 µM (inactive),> 100 µM (inactive),> 100 µM (inactive),35.6 µM (inactive),> 100 µM (inactive),> 100 µM (inactive),> 100 µM (inactive)
CN(C)CCn1c(=O)c2ccc3c4c(nn3CCN(C)C)c3ccccc3n(c1=O)c24,< 0.121 µM (active),0.0608 µM (active),0.201 µM (active),0.164 µM (active),< 0.123 µM (active),0.214 µM (active),,< 0.01 µM (active),0.211 µM (active),0.571 µM (active),0.728 µM (active),0.148 µM (active),0.564 µM (active),0.271 µM (active),0.301 µM (active),0.598 µM (active),0.188 µM (active),0.23 µM (active),0.248 µM (active),1.12 µM (inactive)
CCOC(=O)NC(Nc1ccc([N+](=O)[O-])cc1)(C(F)(F)F)C(F)(F)F,> 100 µM (inactive),82.4 µM (inactive),> 100 µM (inactive),> 100 µM (inactive),> 100 µM (inactive),75.3 µM (inactive),,> 100 µM (inactive),> 100 µM (inactive),> 100 µM (inactive),81.3 µM (inactive),> 100 µM (inactive),95.1 µM (inactive),27 µM (inactive),91.2 µM (inactive),54.1 µM (inactive),60.7 µM (inactive),21.3 µM (inactive),22 µM (inactive),70.3 µM (inactive)
COc1ccccc1N1C(=O)CSC1c1cc(OC)c(OC)c(OC)c1 (configuration not stated),18.8 µM (inactive),> 35 µM (inactive),> 100 µM (inactive),> 100 µM (inactive),> 100 µM (inactive),35.6 µM (inactive),,> 100 µM (inactive),> 46.1 µM (inactive),15.8 µM (inactive),25.5 µM (inactive),> 100 µM (inactive),20.5 µM (inactive),> 76.7 µM (inactive),> 100 µM (inactive),20.5 µM (inactive),16.3 µM (inactive),14.7 µM (inactive),11.9 µM (inactive),> 84.7 µM (inactive)
Cc1ccc2c(c1)[nH]c(=S)n2C=C1C(=O)CC(C)(C)CC1=O,> 100 µM (inactive),> 100 µM (inactive),> 100 µM (inactive),> 100 µM (inactive),> 100 µM (inactive),> 100 µM (inactive),,> 100 µM (inactive),> 100 µM (inactive),> 100 µM (inactive),> 100 µM (inactive),> 100 µM (inactive),> 100 µM (inactive),> 100 µM (inactive),> 100 µM (inactive),> 100 µM (inactive),> 100 µM (inactive),> 100 µM (inactive),> 100 µM (inactive),> 100 µM (inactive)
COc1cc2c(cc1OC)C(=O)C(C1=C(SC(=N)N)C(=O)c3cc(OC)c(OC)cc31)C2 (configuration not stated),> 100 µM (inactive),> 100 µM (inactive),> 100 µM (inactive),71.4 µM (inactive),> 100 µM (inactive),> 100 µM (inactive),> 100 µM (inactive),> 100 µM (inactive),> 100 µM (inactive),> 100 µM (inactive),> 100 µM (inactive),> 100 µM (inactive),> 100 µM (inactive),> 100 µM (inactive),,,,,,> 100 µM (inactive)
NC(=O)C(=Cc1ccc(CP(=O)(O)O)cc1)C(N)=O,> 100 µM (inactive),> 100 µM (inactive),> 100 µM (inactive),> 100 µM (inactive),> 100 µM (inactive),> 100 µM (inactive),> 100 µM (inactive),> 100 µM (inactive),,> 100 µM (inactive),> 100 µM (inactive),> 100 µM (inactive),> 100 µM (inactive),> 100 µM (inactive),> 100 µM (inactive),,,,,> 100 µM (inactive)
C[C@]12CC[C@@H]3c4ccc(OS(N)(=O)=O)cc4CC[C@H]3[C@@H]1CCC2=O [EMATE],53.3 µM (inactive),> 100 µM (inactive),38.7 µM (inactive),55.2 µM (inactive),30.1 µM (inactive),75.9 µM (inactive),,53 µM (inactive),32.9 µM (inactive),52.2 µM (inactive),13.5 µM (inactive),81.3 µM (inactive),37.6 µM (inactive),38.7 µM (inactive),97.1 µM (inactive),33 µM (inactive),36.5 µM (inactive),39.4 µM (inactive),31.6 µM (inactive),32.4 µM (inactive)
Cc1cc(/N=C/c2ccc(Cl)cc2)n(-c2ccccc2)n1,37.3 µM (inactive),39 µM (inactive),23.9 µM (inactive),36 µM (inactive),23.4 µM (inactive),54.2 µM (inactive),,40.7 µM (inactive),69.3 µM (inactive),> 100 µM (inactive),27.6 µM (inactive),39.4 µM (inactive),54.2 µM (inactive),59 µM (inactive),21.9 µM (inactive),26 µM (inactive),32.2 µM (inactive),31.1 µM (inactive),32.2 µM (inactive),63.5 µM (inactive)
